Several values for one entry are separate records, joined by “and”; a condition that tells them apart may be missing. Equal entries are not always repeated.
What was measured:
[1] = system: dengue virus type 2; assay: (§1) Functional immunofluorescence assay to measure dose dependent changes in antiviral-drug inhibitory efficacy against Dengue virus type 2 Thailand/16681/84 in Vero E6/TMPRSS2 cells (cotreated with P-gp inhibitor, Elacridar). Cells are treated with antiviral candidates that are serially diluted, following infection, cells are fixed. EC50 is reported via analysis of immunofluorescence staining. The assay has been performed by Icahn School of Medicine at Mount Sinai.; assay type: organism-based, Chlorocebus sabaeus, VeroE6/TMPRSS2; settings: Dengue virus
[2] = system: Zika virus; assay: EC50 is reported via analysis of immunofluorescence staining. The assay has been performed by Icahn School of Medicine at Mount Sinai.; assay type: functional, organism-based, Chlorocebus sabaeus, VeroE6/TMPRSS2; settings: for EC90: P-gp concentration 2 uM, P-gp inhibitor Elacidar
[3] = system: Zika virus; assay: as §1, with “Zika” for “Dengue”, “PRVABC59” for “type 2 Thailand/16681/84”, “cells.” for “cells (cotreated with P-gp inhibitor, Elacridar).”; assay type: organism-based, Chlorocebus sabaeus; settings: for EC50: VeroE6/TMPRSS2
[4] = system: dengue virus type 2; assay: as §1, with “cells.” for “cells (cotreated with P-gp inhibitor, Elacridar).”; assay type: organism-based, Chlorocebus sabaeus; settings: for EC50: VeroE6/TMPRSS2
[5] = system: dengue virus type 2; assay: Functional assay to measure dose dependent changes in antiviral-drug inhibitory efficacy against Dengue virus type 2 New Guinea C in Vero E6 miRFP670 cells (cotreated with P-gp inhibitor, CP100356). Cells are treated with antiviral candidates that are serially diluted, following infection, cells are fixed. EC50 is reported via analysis of fluorescence intensity using high-content imager. The …; assay type: organism-based, Chlorocebus sabaeus, Vero C1008; settings: Dengue virus, Vero C1008
[6] = system: Zika virus; assay: Functional CPE-based assay to measure dose dependent changes in antiviral-drug inhibitory efficacy against Zika virus MR766 in Vero E6 miRFP670 cells. Cells are treated with antiviral candidates that are serially diluted. EC50 is reported via analysis of MTS assay as a readout of CPE. The assay has been performed by KU Leuven.; assay type: organism-based, Chlorocebus sabaeus, Vero C1008; settings: Zika virus

O=C(Nc1cc(Cl)cc(C(=O)Nc2cccc(-c3nnn[nH]3)c2)c1)OCc1ccccc1
EC50 ([1]; VeroE6/TMPRSS2): 48.9 µM | EC90 ([1]; VeroE6/TMPRSS2, Baseline response 0 %, Hill slope -12.435, Maximum measured 130.492 %, Maximum response 60 %, Minimum measured 25.847 %, P-gp concentration 2 uM, R squared 0.033, P-gp inhibitor Elacidar): > 50 µM | EC50 ([2]; Zika virus, VeroE6/TMPRSS2): 2680 nM | EC90 ([2]; Zika virus, VeroE6/TMPRSS2, Baseline response 0 %, Hill slope -0.321, Maximum measured 94.477 %, Maximum response 100 %, Minimum measured 40.195 %, R squared 0.392): > 16.7 µM | EC50 [3]: > 50 µM | EC90 ([3]; VeroE6/TMPRSS2, Maximum measured 198.65 %, Minimum measured 79.352 %): > 50 µM

CCc1cc(C(=O)Nc2cccc(CN)c2)sc1-c1ccc(Cl)cc1
EC50 ([1]; VeroE6/TMPRSS2): 1.48 µM | EC90 ([1]; VeroE6/TMPRSS2, Baseline response 0 %, Hill slope -0.734, Maximum measured 115.481 %, Maximum response 100 %, Minimum measured 26.383 %, P-gp concentration 2 uM, R squared 0.805, P-gp inhibitor Elacidar): > 5.56 µM | EC50 [4]: 40 nM | EC90 ([4]; VeroE6/TMPRSS2, Baseline response 0 %, EC90 CI (lower) 0 uM, EC90 CI (upper) […] uM, Hill slope -0.657, Maximum measured 73.173 %, Maximum response 100 %, Minimum measured 2.32 %, R squared 0.658): 1.14 µM | EC50 ([2]; Zika virus, VeroE6/TMPRSS2): > 50000 nM | EC90 ([2]; Zika virus, VeroE6/TMPRSS2, Baseline response 0 %, Hill slope -0.283, Maximum measured 157.581 %, Maximum response 100 %, Minimum measured 60.948 %, R squared 0.14): > 50 µM | EC50 [5]: 7.88 µM | EC90 ([5]; Baseline response 0 %, EC90 CI (lower) 5.869 uM, EC90 CI (upper) 6.978 uM, Hill slope -10.543, Maximum measured 99.815 %, Maximum response 100 %, Minimum measured 0.348 %, P-gp concentration 500 nM, R squared 0.992, P-gp inhibitor CP100356): 9.71 µM

Cc1cc(-c2ccc([C@@H](NC(=O)OCc3ccccc3)C(=O)Nc3cccc(CN)c3)cc2)cs1
EC50 ([1]; VeroE6/TMPRSS2): > 5.56 µM | EC90 ([1]; VeroE6/TMPRSS2, Maximum measured 25.792 %, Minimum measured 7.149 %, P-gp concentration 2 uM, P-gp inhibitor Elacidar): > 5.56 µM | EC50 [4]: 145 nM | EC90 ([4]; VeroE6/TMPRSS2, Baseline response 0 %, Hill slope -0.322, Maximum measured 78.243 %, Maximum response 100 %, Minimum measured 15.352 %, R squared 0.327): > 5.56 µM | EC50 ([2]; Zika virus, VeroE6/TMPRSS2): > 50000 nM | EC90 ([2]; Zika virus, VeroE6/TMPRSS2, Maximum measured 84.809 %, Minimum measured 8.553 %): > 50 µM | EC50 [3]: > 50 µM | EC90 ([3]; VeroE6/TMPRSS2, Maximum measured 207.969 %, Minimum measured 85.523 %): > 50 µM

NCc1cccc(C(=O)Nc2cc(Cl)cc(NC(=O)OCc3ccccc3)c2)c1
EC50 ([1]; VeroE6/TMPRSS2): 3.17 µM | EC90 ([1]; VeroE6/TMPRSS2): 5.42 µM | EC50 [4]: > 5560 nM | EC90 ([4]; VeroE6/TMPRSS2, Maximum measured 181.372 %, Minimum measured 88.426 %): > 5.56 µM | EC90 ([2]; Baseline response 0 %, Hill slope -0.985, Maximum measured 92.072 %, Maximum response 100 %, Minimum measured 6.61 %, R squared 0.567): > 5.56 µM | EC90 ([2]; Zika virus, VeroE6/TMPRSS2, Baseline response 0 %, Hill slope -0.721, Maximum measured 131.562 %, Maximum response 100 %, Minimum measured 27.938 %, R squared 0.396): > 3.33 µM | EC50 ([2]; veroe6/tmprss2): 2100 nM and 867 nM

O=C(O)c1cc(Cl)ccc1NS(=O)(=O)c1ccc(Oc2ccccc2Cl)cc1
EC50 [4]: < 23 nM | EC90 ([4]; VeroE6/TMPRSS2, Baseline response 0 %, Hill slope -0.289, Maximum measured 50.892 %, Maximum response 100 %, Minimum measured 16.572 %, R squared 0.294): > 5.56 µM | EC50 [3]: > 50 µM | EC90 ([3]; VeroE6/TMPRSS2, Baseline response 0 %, Hill slope 0.308, Maximum measured 143.489 %, Maximum response 100 %, Minimum measured 67.888 %, R squared 0.041): > 50 µM

O=C(Nc1cc(Cl)cc(C(=O)Nc2cccc(-n3nn[nH]c3=O)c2)c1)OCc1ccccc1
EC50 ([1]; VeroE6/TMPRSS2): 38.1 µM | EC90 ([1]; VeroE6/TMPRSS2, Baseline response 0 %, Hill slope -4.745, Maximum measured 70.688 %, Maximum response 60 %, Minimum measured 12.915 %, P-gp concentration 2 uM, R squared 0.282, P-gp inhibitor Elacidar): > 50 µM | EC50 ([2]; Zika virus, VeroE6/TMPRSS2): 828 nM | EC90 ([2]; Zika virus, VeroE6/TMPRSS2, Baseline response 0 %, Hill slope -0.989, Maximum measured 91.506 %, Maximum response 100 %, Minimum measured 6.41 %, R squared 0.606): > 5.56 µM | EC50 [5]: 44.1 µM | EC90 [5]: 48.8 µM | EC50 [3]: 45.7 µM | EC90 ([3]; VeroE6/TMPRSS2, Baseline response 0 %, Hill slope -14.888, Maximum measured 123.167 %, Maximum response 100 %, Minimum measured 20.725 %, R squared 0.524): > 50 µM | EC50 ([6]; Vero C1008): > 50 µM | EC90 ([6]; Vero C1008, Baseline response 0 %, Hill slope -0.529, Maximum measured 3.199 %, Maximum response 100 %, Minimum measured -1.205 %, R squared 0.435): > 50 µM

— ChEMBL document CHEMBL5661943, “ASAP - In vitro antiviral effect” (2024)
